From the NIST ThermoML archive (doi:10.1016/j.fluid.2012.09.026)

Legend:
[1] = molar heat capacity at constant volume; conditions: Vacuum adiabatic calorimetry

CCCCO [butan-1-ol]
Conditions | mass density [kg/m3] | molar heat capacity at constant volume [J/K/mol]
563.04 K, 4340 kPa, Gas, isochoric method | 203.9 | –
564.02 K, 4461 kPa, Liquid, isochoric method | 270 | –
565.29 K, 4559 kPa, Liquid, isochoric method | 345.9 | –
568.44 K, 4598 kPa, Gas, isochoric method | 203.9 | –
569.15 K, 4559 kPa, Gas, isochoric method | 167.7 | –
569.8 K, 4775 kPa, Liquid, isochoric method | 270 | –
572.54 K, 5138 kPa, Liquid, isochoric method | 345.9 | –
574.48 K, 4178 kPa, Gas, isochoric method | 113.76 | –
577.73 K, 5059 kPa, Gas, isochoric method | 203.9 | –
580.8 K, 5000 kPa, Gas, isochoric method | 167.7 | –
582.21 K, 5647 kPa, Liquid, isochoric method | 270 | –
583.19 K, 6118 kPa, Liquid, isochoric method | 345.9 | –
584.19 K, 10275 kPa, Liquid, isochoric method | 470 | –
588.79 K, 5613 kPa, Gas, isochoric method | 203.9 | –
590.87 K, 4586 kPa, Gas, isochoric method | 113.76 | –
593.16 K, 5452 kPa, Gas, isochoric method | 167.7 | –
593.16 K, 6393 kPa, Liquid, isochoric method | 270 | –
600.42 K, 6162 kPa, Gas, isochoric method | 203.9 | –
604.17 K, 5852 kPa, Gas, isochoric method | 167.7 | –
605.17 K, 4925 kPa, Gas, isochoric method | 113.76 | –
605.88 K, 7197 kPa, Liquid, isochoric method | 270 | –
606.77 K, 8197 kPa, Liquid, isochoric method | 345.9 | –
614.97 K, 6834 kPa, Gas, isochoric method | 203.9 | –
616.27 K, 6275 kPa, Gas, isochoric method | 167.7 | –
616.28 K, 5197 kPa, Gas, isochoric method | 113.76 | –
[1], 520 K, Gas, Specific volume=0.016529 m3/kg | – | 236.45
[1], 520 K, Liquid, Specific volume=0.001879 m3/kg | – | 220.88
[1], 530 K, Gas, Specific volume=0.013513 m3/kg | – | 243.12
[1], 530 K, Liquid, Specific volume=0.001974 m3/kg | – | 220.22
[1], 533.45 K, Gas, Specific volume=0.012425 m3/kg | – | 246.16
[1], 533.45 K, Liquid, Specific volume=0.002001 m3/kg | – | 220.22
[1], 540 K, Gas, Specific volume=0.010776 m3/kg | – | 252.01
[1], 540 K, Liquid, Specific volume=0.002103 m3/kg | – | 220.14
[1], 550 K, Gas, Specific volume=0.008333 m3/kg | – | 260.91
[1], 550 K, Liquid, Specific volume=0.002288 m3/kg | – | 220.88
[1], 560 K, Gas, Specific volume=0.005682 m3/kg | – | 281.74
[1], 560 K, Liquid, Specific volume=0.002717 m3/kg | – | 228.37
[1], 561 K, Gas, Specific volume=0.005319 m3/kg | – | 286.85
[1], 561 K, Liquid, Specific volume=0.002792 m3/kg | – | 235.71
[1], 562 K, Gas, Specific volume=0.004879 m3/kg | – | 294.26
[1], 562 K, Liquid, Specific volume=0.002985 m3/kg | – | 247.57
[1], 563 K, Gas, Specific volume=0.0046 m3/kg | – | 303.9
[1], 563 K, Liquid, Specific volume=0.003108 m3/kg | – | 258.68
[1], 563.21 K, Fluid (supercritical or subcritical phases), Mass density=270 kg/m3 | – | 356.16
[1], 563.39 K, Fluid (supercritical or subcritical phases), Mass density=270 kg/m3 | – | 317.24
[1], 563.57 K, Fluid (supercritical or subcritical phases), Mass density=270 kg/m3 | – | 306.86
[1], 564.81 K, Fluid (supercritical or subcritical phases), Mass density=270 kg/m3 | – | 294.63
[1], 564.99 K, Fluid (supercritical or subcritical phases), Mass density=270 kg/m3 | – | 292.04
[1], 565.17 K, Fluid (supercritical or subcritical phases), Mass density=270 kg/m3 | – | 290.19
[1], 566.6 K, Fluid (supercritical or subcritical phases), Mass density=270 kg/m3 | – | 282.4
[1], 566.77 K, Fluid (supercritical or subcritical phases), Mass density=270 kg/m3 | – | 280.18
[1], 566.95 K, Fluid (supercritical or subcritical phases), Mass density=270 kg/m3 | – | 279.81
[1], 567.13 K, Fluid (supercritical or subcritical phases), Mass density=270 kg/m3 | – | 277.59
[1], 569.09 K, Fluid (supercritical or subcritical phases), Mass density=270 kg/m3 | – | 269.8
[1], 569.26 K, Fluid (supercritical or subcritical phases), Mass density=270 kg/m3 | – | 269.06
[1], 569.44 K, Fluid (supercritical or subcritical phases), Mass density=270 kg/m3 | – | 268.32
[1], 573.52 K, Fluid (supercritical or subcritical phases), Mass density=270 kg/m3 | – | 259.06
[1], 573.67 K, Fluid (supercritical or subcritical phases), Mass density=270 kg/m3 | – | 257.94
[1], 582.51 K, Fluid (supercritical or subcritical phases), Mass density=270 kg/m3 | – | 246.83
[1], 582.69 K, Fluid (supercritical or subcritical phases), Mass density=270 kg/m3 | – | 246.08
[1], 582.86 K, Fluid (supercritical or subcritical phases), Mass density=270 kg/m3 | – | 246.08
[1], 583.22 K, Fluid (supercritical or subcritical phases), Mass density=270 kg/m3 | – | 245.34
[1], 590.92 K, Fluid (supercritical or subcritical phases), Mass density=270 kg/m3 | – | 240.15
[1], 591.07 K, Fluid (supercritical or subcritical phases), Mass density=270 kg/m3 | – | 240.52
[1], 591.23 K, Fluid (supercritical or subcritical phases), Mass density=270 kg/m3 | – | 239.41
[1], 591.62 K, Fluid (supercritical or subcritical phases), Mass density=270 kg/m3 | – | 239.41
[1], 598.76 K, Fluid (supercritical or subcritical phases), Mass density=270 kg/m3 | – | 235.34
[1], 599.1 K, Fluid (supercritical or subcritical phases), Mass density=270 kg/m3 | – | 236.08
[1], 599.28 K, Fluid (supercritical or subcritical phases), Mass density=270 kg/m3 | – | 235.71
[1], 599.63 K, Fluid (supercritical or subcritical phases), Mass density=270 kg/m3 | – | 234.97
[1], 605.17 K, Fluid (supercritical or subcritical phases), Mass density=270 kg/m3 | – | 232.74
[1], 605.35 K, Fluid (supercritical or subcritical phases), Mass density=270 kg/m3 | – | 232.37
[1], 606.21 K, Fluid (supercritical or subcritical phases), Mass density=270 kg/m3 | – | 232
[1], 606.56 K, Fluid (supercritical or subcritical phases), Mass density=270 kg/m3 | – | 232
[1], 609.49 K, Fluid (supercritical or subcritical phases), Mass density=270 kg/m3 | – | 231.26
[1], 609.67 K, Fluid (supercritical or subcritical phases), Mass density=270 kg/m3 | – | 230.52
[1], 609.84 K, Fluid (supercritical or subcritical phases), Mass density=270 kg/m3 | – | 230.89
[1], 621.18 K, Fluid (supercritical or subcritical phases), Mass density=270 kg/m3 | – | 227.55
[1], 621.53 K, Fluid (supercritical or subcritical phases), Mass density=270 kg/m3 | – | 226.81
[1], 622.22 K, Fluid (supercritical or subcritical phases), Mass density=270 kg/m3 | – | 226.07
[1], 637.42 K, Fluid (supercritical or subcritical phases), Mass density=270 kg/m3 | – | 225.33
[1], 637.77 K, Fluid (supercritical or subcritical phases), Mass density=270 kg/m3 | – | 223.11

Conditions | mass density [kg/m3]
563.04 K, Liquid, Isochoric Breaking Point | 270
